Laboratory results reported in ChEMBL document CHEMBL1201862, “PubChem BioAssay data set” (2004).
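Test compounds were applied to cells in 96-well plates for 48 hours at 5 doses. GI50 marks 50% less growth.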 Activity calls are given as the source filed them. Rule as the data show it: active = GI50 up to about 1.1 µM and inactive = higher.

Key:
Test in all cases: NCI tumour cell line growth inhibition, 48 h
NCI-H226 = tested on: NCI-H226
UACC-257 = tested on: UACC-257
786-0 = tested on: 786-0
NCI/ADR-RES = tested on: NCI/ADR-RES
OVCAR-8 = tested on: OVCAR-8
SR = tested on: SR
ACHN = tested on: ACHN
HCT-15 = tested on: HCT-15
CCRF-CEM = tested on: CCRF-CEM
HL-60 = tested on: HL-60
CAKI-1 = tested on: CAKI-1
HCT-116 = tested on: HCT-116
T47D = tested on: T47D
HOP-62 = tested on: HOP-62
BT-549 = tested on: BT-549
HOP-92 = tested on: HOP-92
NCI-H460 = tested on: NCI-H460
PC-3 = tested on: PC-3
TK-10 = tested on: TK-10
HT-29 = tested on: HT-29
IGROV-1 = tested on: IGROV-1
OVCAR-3 = tested on: OVCAR-3
SK-MEL-28 = tested on: SK-MEL-28
SK-OV-3 = tested on: SK-OV-3
SF-539 = tested on: SF-539
MDA-MB-231 = tested on: MDA-MB-231
SN12C = tested on: SN12C
EKVX = tested on: EKVX
SK-MEL-5 = tested on: SK-MEL-5
MDA-N = tested on: MDA-N
K562 = tested on: K562
MDA-MB-435 = tested on: MDA-MB-435
NCI-H522 = tested on: NCI-H522
A498 = tested on: A498
SNB-75 = tested on: SNB-75
Malme-3M = tested on: Malme-3M
SF-268 = tested on: SF-268
U-251 = tested on: U-251
LOX IMVI = tested on: LOX IMVI
SF-295 = tested on: SF-295
A549 = tested on: A549
COLO 205 = tested on: COLO 205
OVCAR-4 = tested on: OVCAR-4
MOLT-4 = tested on: MOLT-4
UO-31 = tested on: UO-31
DU-145 = tested on: DU-145
RXF 393 = tested on: RXF 393
UACC-62 = tested on: UACC-62
SNB-19 = tested on: SNB-19
OVCAR-5 = tested on: OVCAR-5
Hs-578T = tested on: Hs-578T
NCI-H23 = tested on: NCI-H23
M14 = tested on: M14
SW-620 = tested on: SW-620
MCF7 = tested on: MCF7
SK-MEL-2 = tested on: SK-MEL-2
KM12 = tested on: KM12
HCC 2998 = tested on: HCC 2998
RPMI-8226 = tested on: RPMI-8226

Q: What does the source list for `CC(C)N(C(=O)c1ccc(NCc2cc(O)ccc2O)cc1)C(C)C`?
A: GI50 (NCI-H226): 17.2 µM (inactive); GI50 (UACC-257): 17.4 µM (inactive); GI50 (786-0): 13 µM (inactive); GI50 (NCI/ADR-RES): 14.8 µM (inactive); GI50 (OVCAR-8): 14.4 µM (inactive); GI50 (SR): > 100 µM (inactive); GI50 (ACHN): 13.8 µM (inactive); GI50 (HCT-15): 16.8 µM; GI50 (CCRF-CEM): 3.08 µM (inactive); GI50 (HL-60): 2.26 µM (inactive); GI50 (CAKI-1): 14.2 µM (inactive); GI50 (HCT-116): 15.5 µM (inactive); GI50 (T47D): 11.8 µM (inactive); GI50 (HOP-62): 25.5 µM (inactive); GI50 (BT-549): 11.9 µM (inactive); GI50 (HOP-92): 11.9 µM (inactive); GI50 (NCI-H460): 18.2 µM (inactive); GI50 (PC-3): 18.8 µM (inactive); GI50 (TK-10): 15.6 µM (inactive); GI50 (HT-29): 18 µM (inactive); GI50 (IGROV-1): 17.7 µM (inactive); GI50 (OVCAR-3): 11.6 µM (inactive); GI50 (SK-MEL-28): 16.9 µM (inactive); GI50 (SK-OV-3): 35.3 µM (inactive); GI50 (SF-539): 12.9 µM (inactive); GI50 (MDA-MB-231): 14.3 µM (inactive); GI50 (SN12C): 18.2 µM (inactive); GI50 (EKVX): 14.7 µM (inactive); GI50 (SK-MEL-5): 14.6 µM (inactive); GI50 (MDA-N): 17.7 µM (inactive); GI50 (K562): 20.4 µM (inactive); GI50 (MDA-MB-435): 17.1 µM (inactive); GI50 (NCI-H522): 1.59 µM (inactive); GI50 (A498): 18 µM (inactive); GI50 (SNB-75): 24.8 µM (inactive); GI50 (Malme-3M): 13.9 µM (inactive); GI50 (SF-268): 17.6 µM (inactive); GI50 (U-251): 15.8 µM (inactive); GI50 (LOX IMVI): 14.7 µM (inactive); GI50 (SF-295): 21.1 µM (inactive); GI50 (A549): 26.2 µM (inactive); GI50 (COLO 205): 30.4 µM (inactive); GI50 (OVCAR-4): 15.1 µM (inactive); GI50 (MOLT-4): 15.2 µM (inactive); GI50 (UO-31): 9.44 µM (inactive); GI50 (DU-145): 16.4 µM (inactive); GI50 (RXF 393): 13.1 µM (inactive); GI50 (UACC-62): 14.2 µM (inactive); GI50 (SNB-19): 19.2 µM (inactive); GI50 (OVCAR-5): 21.5 µM (inactive); GI50 (Hs-578T): 26.2 µM (inactive); GI50 (NCI-H23): 17.9 µM (inactive); GI50 (M14): 17.2 µM (inactive); GI50 (SW-620): 21.5 µM (inactive); GI50 (MCF7): 23.9 µM (inactive); GI50 (SK-MEL-2): 22.3 µM (inactive)

Q: How did the GI50 (UACC-257) turn out when `CCCOC(=O)NC(C)C(=O)NC(CCC(=O)NC(CCCC(N)C(=O)O)C(=O)NC(C)C(=O)O)C(=O)O` (centres undefined) was run?
A: > 10 µM (inactive)

Q: What about the GI50 (786-0) of the same molecule?
A: 30.2 µM (inactive)

Q: And the GI50 (NCI/ADR-RES)?
A: 19.2 µM (inactive)

Q: And the GI50 (OVCAR-8)?
A: 17.9 µM (inactive)

Q: And the GI50 (SR)?
A: 15.6 µM (inactive)

Q: What about the GI50 (ACHN) of the same molecule?
A: 42.9 µM (inactive)

Q: What about the GI50 (KM12) of the same molecule?
A: 14.4 µM (inactive)

Q: And the GI50 (HCT-15)?
A: 18.1 µM

Q: And the GI50 (CCRF-CEM)?
A: 19.2 µM (inactive)

Q: What about the GI50 (HL-60) of the same molecule?
A: 24.8 µM (inactive)

Q: What about the GI50 (CAKI-1) of the same molecule?
A: 19.9 µM (inactive)

Q: And the GI50 (HCT-116)?
A: 34.4 µM (inactive)

Q: And the GI50 (T47D)?
A: 18.3 µM (inactive)

Q: What about the GI50 (HOP-62) of the same molecule?
A: > 100 µM (inactive)

Q: What about the GI50 (BT-549) of the same molecule?
A: 20.7 µM (inactive)

Q: And the GI50 (HOP-92)?
A: 29.5 µM (inactive)

Q: And the GI50 (NCI-H460)?
A: 38.7 µM (inactive)

Q: And the GI50 (PC-3)?
A: 23.9 µM (inactive)

Q: What about the GI50 (TK-10) of the same molecule?
A: 69.8 µM (inactive)

Q: What about the GI50 (HT-29) of the same molecule?
A: 19.5 µM (inactive)

Q: And the GI50 (IGROV-1)?
A: 62.2 µM (inactive)

Q: And the GI50 (HCC 2998)?
A: 17.1 µM (inactive)

Q: And the GI50 (OVCAR-3)?
A: 80.9 µM (inactive)

Q: And the GI50 (SK-MEL-28)?
A: 19.4 µM (inactive)

Q: And the GI50 (SF-539)?
A: 14.8 µM (inactive)

Q: And the GI50 (MDA-MB-231)?
A: 19.3 µM (inactive)

Q: And the GI50 (SN12C)?
A: 50.8 µM (inactive)

Q: What about the GI50 (EKVX) of the same molecule?
A: 49.3 µM (inactive)

Q: What about the GI50 (SK-MEL-5) of the same molecule?
A: 15.7 µM (inactive)

Q: And the GI50 (MDA-N)?
A: 21.1 µM (inactive)

Q: What about the GI50 (MDA-MB-435) of the same molecule?
A: 56.8 µM (inactive)

Q: What about the GI50 (NCI-H522) of the same molecule?
A: 26.8 µM (inactive)

Q: And the GI50 (A498)?
A: > 100 µM (inactive)

Q: What about the GI50 (SF-268) of the same molecule?
A: 16.7 µM (inactive)

Q: What about the GI50 (U-251) of the same molecule?
A: 25.5 µM (inactive)

Q: And the GI50 (LOX IMVI)?
A: 16.6 µM (inactive)

Q: And the GI50 (SF-295)?
A: 16.6 µM (inactive)

Q: What about the GI50 (A549) of the same molecule?
A: 74.6 µM (inactive)

Q: What about the GI50 (COLO 205) of the same molecule?
A: 27.2 µM (inactive)

Q: What about the GI50 (OVCAR-4) of the same molecule?
A: 29.4 µM (inactive)

Q: What about the GI50 (MOLT-4) of the same molecule?
A: 23 µM (inactive)

Q: And the GI50 (RPMI-8226)?
A: 12.3 µM (inactive)

Q: What about the GI50 (UO-31) of the same molecule?
A: 41.8 µM (inactive)

Q: What about the GI50 (DU-145) of the same molecule?
A: 24.4 µM (inactive)

Q: What about the GI50 (UACC-62) of the same molecule?
A: 18.6 µM (inactive)

Q: What about the GI50 (SNB-19) of the same molecule?
A: 27.7 µM (inactive)

Q: And the GI50 (OVCAR-5)?
A: 41.9 µM (inactive)

Q: And the GI50 (Hs-578T)?
A: 15.7 µM (inactive)

Q: And the GI50 (NCI-H23)?
A: > 100 µM (inactive)

Q: And the GI50 (M14)?
A: 18.3 µM (inactive)

Q: And the GI50 (SW-620)?
A: 23 µM (inactive)

Q: And the GI50 (MCF7)?
A: 39.2 µM (inactive)

Q: What about the GI50 (SK-MEL-2) of the same molecule?
A: 54.2 µM (inactive)
